# Assay results published in article PMC6191125, “Peptidoglycan potentiates the membrane disrupting effect of the carboxyamidated form of DMS-DA6, a Gram-positive selective antimicrobial peptide isolated from Pachymedusa dacnicolor skin” (PLoS ONE, 2018).
# Residues, ends and D or L forms follow the SMILES beside them.
# Key:
# E. coli ATCC 35218 = format: cell-based, Escherichia coli; conditions: LB, 10^7 cfu/mL, 18 h at 37°C, peptide 0.2-100 μM, averaged over >=3 independent experiments in triplicate
# Description: (§1) Gram-negative bacterial strains, Escherichia coli ATCC 8739, Escherichia coli ATCC 35218, Escherichia coli ML 35p, Escherichia coli K12, Pseudomonas aeruginosa ATCC 27853, and Gram-positive bacterial strains, Enterococcus faecalis ATCC29212, Kocuria rhizophila ATCC 9341, Staphylococcus aureus ATCC 6538, Staphylococcus aureus ATCC 29213, Staphylococcus aureus ST 1065, Staphylococcus epidermidis BM 3302, and Bacillus subtilis subsp. subtilis CIP 52.65, as well as two multiresistant strains (Staphylococcus aureus DAR 5829 (http://www.ncbi.nlm.nih.gov/bioproject/228435) and Enterococcus faecium BM 4147 [20] were cultured as described previously. The minimal inhibitory concentration (MIC) of the peptides was determined by the microtiter broth dilution method. Overnight precultures were subcultured in Luria Bertani (LB) medium at 37°C with vigorous shaking until mid-log phase (~2h) and diluted to 10^7 cfu/mL. Peptide solutions were prepared at different concentrations (from 2 to 500 μM) by successive 2-fold dilutions in water from 1 mM stock solutions. In each row of a 96-well nonbinding surface plate, 90 μL of bacteria were incubated with 10 μL of peptide solutions for 18 h at 37°C. The final peptide concentrations ranged from 0.2 to 100 μM. Cell growth was evaluated by visual inspection and absorbance at 600 nm to determine the lowest concentration of peptide that prevented cell growth. Wells were either opaque, indicating stationary phase growth, or transparent indicating no growth. The lowest concentration showing no visible growth was considered as the MIC. After measurement of the MIC, the bactericidal activity was determined by the addition of resazurin dye (30 μL, 0.01% w/v) to each well [22]. The plates were further incubated at 37°C for 18 h. Wells in which the dye turned pink indicated live bacteria, whereas wells in which the dye remained blue indicated dead bacteria. The minimal bactericidal concentration (MBC) is the lowest concentration with blue coloration (99.9% of bacteria were killed). Three to five independent assays were performed in triplicate. Positive controls correspond to medium plus 0.2% formaldehyde and negative controls to medium without peptide.
# E. coli ATCC 8739 = format: cell-based, Escherichia coli; conditions: for MIC: LB, 10^7 cfu/mL, 18 h at 37°C, averaged over >=3 independent experiments in triplicate; for MBC: resazurin dye added after MIC, further 18 h at 37°C, 99.9% killed, averaged over >=3 experiments in triplicate
# Description: as §1
# E. coli K12 = format: cell-based, Escherichia coli; conditions: LB, 10^7 cfu/mL, 18 h at 37°C, peptide 0.2-100 μM, averaged over >=3 independent experiments in triplicate
# Description: as §1
# E. coli ML 35p = format: cell-based, Escherichia coli; conditions: LB, 10^7 cfu/mL, 18 h at 37°C, peptide 0.2-100 μM, averaged over >=3 independent experiments in triplicate
# Description: as §1
# [1] = test system: Ps. aeruginosa ATCC 27853; format: cell-based, Pseudomonas aeruginosa; conditions: LB, 10^7 cfu/mL, 18 h at 37°C, peptide 0.2-100 μM, averaged over >=3 independent experiments in triplicate
# Description: as §1, with “Wells were either opaque, indicating stationary phase growth, or transparent indicating no growth. The lowest concentration showing no visible growth was considered as the MIC. After measurement of the MIC, the bactericidal activity was determined by the addition of resazurin dye (30 μL, 0.01% w/v) to each well [22]. The plates were further incubated at 37°C for 18 h. Wells in which the dye turned pink indicated live bacteria, whereas wells in which the dye remained blue indicated dead bacteria. The minimal bactericidal concentration (MBC) is the lowest concentration with blue coloration (99.9% of bacteria were killed). Three to five independent assays were performed in triplicate. Positive controls correspond to medium plus 0.2% formaldehyde and negative controls to medium without peptide.” left out
# S. epidermidis BM3302 = format: cell-based, Staphylococcus epidermidis; conditions: for MIC: LB, 10^7 cfu/mL, 18 h at 37°C, averaged over >=3 independent experiments in triplicate; for MBC: resazurin dye added after MIC, further 18 h at 37°C, 99.9% killed, averaged over >=3 experiments in triplicate
# Description: as §1
# K. rhizophila ATCC 9341 = format: cell-based, Kocuria rhizophila; conditions: for MIC: LB, 10^7 cfu/mL, 18 h at 37°C, averaged over >=3 independent experiments in triplicate; for MBC: resazurin dye added after MIC, further 18 h at 37°C, 99.9% killed, averaged over >=3 experiments in triplicate
# Description: as §1
# B. subtilis CIP 52.65 = format: cell-based, Bacillus subtilis subsp. subtilis; conditions: for MIC: LB, 10^7 cfu/mL, 18 h at 37°C, averaged over >=3 independent experiments in triplicate; for MBC: resazurin dye added after MIC, further 18 h at 37°C, 99.9% killed, averaged over >=3 experiments in triplicate
# Description: as §1
# S. aureus ATCC 29213 = format: cell-based, Staphylococcus aureus; conditions: for MIC: LB, 10^7 cfu/mL, 18 h at 37°C, averaged over >=3 independent experiments in triplicate; for MBC: resazurin dye added after MIC, further 18 h at 37°C, 99.9% killed, averaged over >=3 experiments in triplicate
# Description: as §1
# S. aureus ATCC 6538 = format: cell-based, Staphylococcus aureus; conditions: for MIC: LB, 10^7 cfu/mL, 18 h at 37°C, averaged over >=3 independent experiments in triplicate; for MBC: resazurin dye added after MIC, further 18 h at 37°C, 99.9% killed, averaged over >=3 experiments in triplicate
# Description: as §1
# S. aureus DAR 5829 = format: cell-based, Staphylococcus aureus; conditions: S. aureus DAR 5829, multi-resistant strain; for MIC: LB, 10^7 cfu/mL, 18 h at 37°C, averaged over >=3 independent experiments in triplicate; for MBC: resazurin dye added after MIC, further 18 h at 37°C, 99.9% killed, averaged over >=3 experiments in triplicate
# Description: as §1
# S. aureus ST 1065 = format: cell-based, Staphylococcus aureus; conditions: for MIC: LB, 10^7 cfu/mL, 18 h at 37°C, averaged over >=3 independent experiments in triplicate; for MBC: resazurin dye added after MIC, further 18 h at 37°C, 99.9% killed, averaged over >=3 experiments in triplicate
# Description: as §1
# E. faecalis ATCC 29212 = format: cell-based, Enterococcus faecalis; conditions: for MIC: LB, 10^7 cfu/mL, 18 h at 37°C, averaged over >=3 independent experiments in triplicate; for MBC: resazurin dye added after MIC, further 18 h at 37°C, 99.9% killed, averaged over >=3 experiments in triplicate
# Description: as §1
# E. faecium BM 4147 = format: cell-based, Enterococcus faecium; conditions: E. faecium BM 4147, multi-resistant strain; for MIC: LB, 10^7 cfu/mL, 18 h at 37°C, averaged over >=3 independent experiments in triplicate; for MBC: resazurin dye added after MIC, further 18 h at 37°C, 99.9% killed, averaged over >=3 experiments in triplicate
# Description: as §1
# A549 cells = assay: Cytotoxicity, trypan blue exclusion; format: cell-based; conditions: A549 human lung carcinoma cells, 2-hour incubation at 37°C, 5% CO2, concentrations as high as 100 μM; 3 independent experiments in triplicate
# Protocol: A549 cells (ATCC CCL-185), a human lung carcinoma cell line, were cultivated at 37°C, humid atmosphere and 5% CO2, in Petri dishes with DMEM Advanced medium (Gibco) supplemented with 5% of fetal bovine serum (FBS), 2 mM of glutamine, 100 U of penicillin and 50 μg/mL of streptomycin (Gibco). When the cells reached 80% confluence, the medium was discarded and the cells were washed with PBS 1×, before being treated with Trypsin 1× for 2 minutes to detach them form the culture dish. Cells were then resuspended in DMEM medium, seeded in a 48-well culture plate (500 000 cells/well), and either form of DMS-DA6 solubilized in PBS 1× was added and incubated for 2 hours at 37°C, 5% CO2. DMSO 30% was used as a positive control to induce cell death, and DMEM medium as negative control. After incubation, cell viability was assessed by trypan blue exclusion.
# S. aureus ST1065 = assay: Bacterial membrane permeabilization (ONPG hydrolysis); format: cell-based, Staphylococcus aureus; conditions: S. aureus ST 1065, 2.5 mM ONPG, absorbance at 420 nm; two independent experiments in triplicate
# Protocol: Membrane permeabilization was assessed by monitoring the hydrolysis of ortho-nitrophenyl β-D-galactopyranoside (ONPG) by the β-galactosidase enzyme, using the S. aureus ST1065 strain, specifically designed for membrane permeabilization assays, through detection of cytoplasmic β-galactosidase activity leakage. Bacteria were grown in LB to an absorbance of 0.5 at 600 nm, pelleted by centrifugation, and the pellets were washed twice with PBS. Pellets were then resuspended in 10% LB in PBS to an absorbance of 0.5 at 600 nm. Aliquots (15 μL) of bacterial suspension were mixed with 2.5 mM ONPG and incubated with various concentrations of peptide in a 96-well plate. The hydrolysis of ONPG was monitored by measuring the absorbance at 420 nm of released o-nitrophenol with a Fluostar Galaxy microplate reader (BMG LabTech, France).
# [2] = Circular dichroism, helical content with lipid vesicles; format: physicochemical; conditions: CD, 10 mM phosphate buffer pH 7.4, 20 μM peptide, peptide/lipid molar ratio 1/50
# Description: Lipid vesicles were formed using bacterial lipids extracted as described above or commercially available synthetic lipids. The lipids, 1-palmitoyl-2-oleoyl-sn-glycero-3-phosphocholine (POPC), 1-palmitoyl-2-oleoyl-sn-glycero-3-phospho-(1'-rac-glycerol) (POPG), 1,2-dimyristoyl-sn-glycero-3-phosphoglycerol (DMPG), 1.2-dioleyl-sn-glycero-3-phosphoglycerol (DOPG), and 1',3'-bis[1,2-dioleoyl-sn-glycero-3-phospho]-sn-glycerol (CL), were obtained from Avanti Polar Lipids, Inc (Alabaster, AL) and used without further purification. Desired mixtures of phospholipids were first dried in glass tubes under nitrogen and then maintained under a reduced pressure for at least 60 min. Lipid films were subsequently hydrated in PBS to yield a lipid concentration of 10 mg.mL^-1 for tryptophan fluorescence experiments, 1 mg.mL^-1 for DSC experiments, and in PB at 1 mM for CD experiments. The resulting dispersions of large multilamellar vesicles (MLVs) were subjected to 3 to 5 freeze-thaw cycles and then extruded 15 times through polycarbonate membranes (100 nm pore size, Whatman, Maidstone, UK) on an Avanti mini-extruder apparatus (Avanti Polar Lipids, Inc., Alabaster, AL) to generate large unilamellar vesicles (LUVs). Lipid vesicles were used either alone, or in combination with S. aureus peptidoglycan (PGN) (Sigma).
# The CD spectra of the peptides were recorded as previously described. […]
SMILES,MIC (E. coli ATCC 35218) [µM],MIC (E. coli ATCC 8739) [µM],MBC (E. coli ATCC 8739) [µM],MIC (E. coli K12) [µM],MIC (E. coli ML 35p) [µM],MIC [1] [µM],MIC (S. epidermidis BM3302) [µM],MBC (S. epidermidis BM3302) [µM],MIC (K. rhizophila ATCC 9341) [µM],MBC (K. rhizophila ATCC 9341) [µM],MIC (B. subtilis CIP 52.65) [µM],MBC (B. subtilis CIP 52.65) [µM],MIC (S. aureus ATCC 29213) [µM],MBC (S. aureus ATCC 29213) [µM],MIC (S. aureus ATCC 6538) [µM],MBC (S. aureus ATCC 6538) [µM],MIC (S. aureus DAR 5829) [µM],MBC (S. aureus DAR 5829) [µM],MIC (S. aureus ST 1065) [µM],MBC (S. aureus ST 1065) [µM],other results
CC[C@H](C)[C@H](NC(=O)CNC(=O)[C@H](Cc1c[nH]c2ccccc12)NC(=O)[C@@H](NC(=O)CN)C(C)C)C(=O)N[C@@H](C)C(=O)N[C@@H](CCCCN)C(=O)N[C@H](C(=O)N[C@@H](C)C(=O)NCC(=O)N[C@@H](CCCCN)C(=O)N[C@H](C(=O)N[C@@H](CC(C)C)C(=O)NCC(=O)N[C@@H](CC(N)=O)C(=O)N[C@H](C(=O)N[C@@H](CC(C)C)C(=O)N1CCC[C@H]1C(=O)N[C@@H](Cc1c[nH]cn1)C(=O)N[C@H](C(=O)N[C@@H](Cc1ccccc1)C(=O)N[C@@H](CO)C(=O)N[C@@H](CO)C(=O)N[C@@H](CC(N)=O)C(=O)N[C@@H](CCC(N)=O)C(=O)N[C@@H](CO)C(N)=O)C(C)C)[C@@H](C)CC)C(C)C)[C@@H](C)CC [DMS-DA6-NH2] (H-GVWGIAKIAGKVLGNILPHVFSSNQS-NH2),>100,25,50,>100,>100,>100,12.5,12.5,3.12,3.12,6.25,6.25,3.12,6.25,6.25,6.25,25,50,12.5,12.5,MIC (E. faecalis ATCC 29212): 50 µM; MBC (E. faecalis ATCC 29212): 50 µM; MIC (E. faecium BM 4147): 25 µM; MBC (E. faecium BM 4147): 25 µM; death of A549 cells (trypan blue exclusion) (A549 cells): neither DMS-DA6-OH (net charge +2) nor DMS-DA6-NH2 (net charge +3) resulted in the death; peptide concentration at which the maximal absorption intensity (ONPG hydrolysis) after 240 minutes was reached (S. aureus ST1065): 12.5 µM; α-helix conformation ([2]; POPG LUVs): about 80%; α-helix conformation ([2]; pure zwitterionic POPC LUVs): 40%; intact peptide remaining: > 90%
CC[C@H](C)[C@H](NC(=O)CNC(=O)[C@H](Cc1c[nH]c2ccccc12)NC(=O)[C@@H](NC(=O)CN)C(C)C)C(=O)N[C@@H](C)C(=O)N[C@@H](CCCCN)C(=O)N[C@H](C(=O)N[C@@H](C)C(=O)NCC(=O)N[C@@H](CCCCN)C(=O)N[C@H](C(=O)N[C@@H](CC(C)C)C(=O)NCC(=O)N[C@@H](CC(N)=O)C(=O)N[C@H](C(=O)N[C@@H](CC(C)C)C(=O)N1CCC[C@H]1C(=O)N[C@@H](Cc1c[nH]cn1)C(=O)N[C@H](C(=O)N[C@@H](Cc1ccccc1)C(=O)N[C@@H](CO)C(=O)N[C@@H](CO)C(=O)N[C@@H](CC(N)=O)C(=O)N[C@@H](CCC(N)=O)C(=O)N[C@@H](CO)C(=O)O)C(C)C)[C@@H](C)CC)C(C)C)[C@@H](C)CC [DMS-DA6-OH] (H-GVWGIAKIAGKVLGNILPHVFSSNQS-OH),>100,50,100,>100,>100,>100,25,25,6.25,12.5,12.5,12.5,6.25,25,12.5,12.5,50,50,25,25,MIC (E. faecalis ATCC 29212): 100 µM; MBC (E. faecalis ATCC 29212): 100 µM; MIC (E. faecium BM 4147): 50 µM; MBC (E. faecium BM 4147): 100 µM; death of A549 cells (trypan blue exclusion) (A549 cells): neither DMS-DA6-OH (net charge +2) nor DMS-DA6-NH2 (net charge +3) resulted in the death; intact peptide remaining: > 90%
